What was measured:
[1] = test system: AR 1.0 cells; assay: Drug accumulation assay (tritiated daunorubicin); format: cell-based; conditions: Mus musculus; for IC50: read-out: IC50 accumulation
Procedure: AR 1.0 cells were seeded into 96 well opaque culture plates (Canberra Packard). The assay medium contained a mixture of tritiated Daunorubicin (DNR), a cytotoxic agent, and unlabelled DNR (0.3 μCi/ml; 2 μM). Compounds of formula I were serially diluted in assay medium over a range of concentrations from 5 nM to 100 μM. The cells were incubated at 37° C. for 1 hr before washing and determination of cell associated radioactivity. Results were expressed as % maximum accumulation where 100% accumulation is that observed in the presence of the known RMA verapamil at 100 μM. Where possible an IC50 was determined.

[2] = test system: AR 1.0 cells; assay: Potentiation of doxorubicin toxicity (fixed doxorubicin 0.86 μM, proliferation, sulphorhodamine B); format: cell-based, mouse
Excerpt: Compounds of formula (I) were examined for their ability to potentiate the toxicity of doxorubicin in AR 1.0 cells.

[3] = test system: AR 1.0 cells; assay: Potentiation index for doxorubicin (doxorubicin titration with fixed concentration of compound); format: cell-based, mouse
Procedure: The EMT6 mouse mammary carcinoma cell line and the MDR resistant sublime AR 1.0 were cultured in RPMI 1640 medium containing 10% foetal calf serum and 2 mM glutamine at 37° C. in 5% CO2. Cells were passaged between 1 in 200 and 1 in 2000 in the case of the parental cell line and between 1 in 20 and 1 in 200 in the case of the MDR resistant subline, after trypsinisation (0.25% trypsin, 0.2 gl^-1, EDTA).
Cells were cultured for four days with a titration of doxorubicin (0.01 nm-50 μM) in the presence of a fixed concentration of each compound. Proliferation was quantified as described by Skehan et. al, loc cit. The IC50 (concentration required to reduce proliferation to 50% of the untreated controls) for doxorubicin alone and with each compound were derived and used to calculate the potentiation index (PI): [formula]

[4] = test system: AR 1.0 cells; assay: Compound toxicity (proliferation, sulphorhodamine B); format: cell-based; conditions: Mus musculus, 96 h, read-out: Compound toxicity (IC50)
[5] = test system: MDR cells; conditions: in vitro and in vivo; Cancer Res., 41, 1967-1972 (1981); cited from earlier work
[6] = daunorubicin 2 μM, 1 hr at 37° C.
[7] = with doxorubicin 0.86 μM, four day incubation, 5760 min, read-out: Toxicity with cytotoxic agent (IC50)
[8] = RMA at 1 μM, doxorubicin, four days
[9] = compound alone, AR 1.0 cells, four day incubation

SMILES | IC50 [1, 6] | IC50 [2, 7] | Potentiation index [3, 8] | IC50 [4, 9] | also measured
CN(CCNC(=O)c1cccc(/C=c2\[nH]c(=O)/c(=C/c3ccccc3)n(C)c2=O)c1)CC(c1ccccc1)c1ccccc1 [Compound 9163, N-(2-(2,2-Diphenylethyl)methylaminoethyl)-3-((3Z,6Z)-6-benzylidene-1-methyl-2,5-dioxo-3-piperazinylidene)methylbenzamide] | 2000 nM | 500 nM | 6.7 | 10 µM | –
Cl.Cn1c(=O)/c(=C/c2ccc(C(=O)Nc3ccc(CN4CCN(c5ccccc5)CC4)cc3)cc2)[nH]c(=O)/c1=C/c1ccccc1 [Compound 9104, N-(4-(4-Phenyl-1-piperazinyl)methylphenyl)-4-((3Z,6Z)-6-benzylidene-1-methyl-2,5-dioxo-3-piperazinylidene)methylbenzamide, hydrochloride] | 5000 nM | – | 17 | 40 µM | –
COc1cc2c(cc1OC)CN(CCc1ccc(COc3ccc(/C=c4\[nH]c(=O)/c(=C/c5ccccc5)n(C)c4=O)cc3)cc1)CC2 [Compound 9176, (3Z,6Z)-6-Benzylidene-3-(4-(4-(2-(6,7-dimethoxy-1,2,3,4-tetrahydro-2-isoquinolyl)ethyl)benzyloxy)benzylidene)-1-methyl-2,5-piperazinedione] | 1000 nM | 200 nM | 300.0 | 10 µM | –
COc1ccc(CCN(C)CCc2ccc(NC(=O)c3cccc(/C=c4\[nH]c(=O)/c(=C/c5ccccc5)n(C)c4=O)c3)cc2)cc1OC [Compound 9138] | 800 nM | 1000 nM | 333 | 8 µM | –
Cn1c(=O)/c(=C/c2ccc(C(=O)Nc3ccc(CCN4CCc5ccccc5C4)cc3)cc2)[nH]c(=O)/c1=C/c1ccccc1 [Compound 9065, N-(4-(2-(1,2,3,4-Tetrahydro-2-isoquinolyl)ethyl)phenyl)-4-((3Z,6Z)-6-benzylidene-1-methyl-2,5-dioxo-3-piperazinylidene)methylbenzamide] | 6000 nM | – | 15 | 2 µM | –
Cn1c(=O)/c(=C/c2ccc(C(=O)Nc3ccc(CCN4CCN(c5cccc(C(F)(F)F)c5)CC4)cc3)cc2)[nH]c(=O)/c1=C/c1ccccc1 [Compound 9049, N-(4-(2-(4-(3-Trifluoromethylphenyl)-1-piperazinyl)ethyl)phenyl)-4-((3Z,6Z)-6-benzylidene-1-methyl-2,5-dioxo-3-piperazinylidene)methylbenzamide] | – | – | 15 | 2 µM | Emax ([1]; 1 h, % maximum accumulation, 100% = verapamil at 100 μM, compound 5 nM to 100 μM, read-out: Max accumulation): 20%
COc1ccc(CCN(C)CCCC(C#N)(c2ccc(OC)c(OC)c2)C(C)C)cc1OC (stereo not drawn) [Verapamil] | – | – | – | – | sensitisation of MDR cells to Vinca alkaloids [5]: shown to sensitise MDR cells to Vinca alkaloids in vitro and in vivo
COc1cc2c(cc1OC)CN(CCNC(=O)c1cccc(/C=c3\[nH]c(=O)/c(=C/c4ccccc4)n(C)c3=O)c1)CC2 [Compound 9136, N-(2-(6,7-Dimethoxy-1,2,3,4-tetrahydro-2-isoquinolyl)ethyl)-3-((3Z,6Z)-6-benzylidene-1-methyl-2,5-dioxo-3-piperazinylidene)methylbenzamide] | 900 nM | 2000 nM | 25 | 13 µM | –
COc1cc2c(cc1OC)CN(CCc1ccc(NC(=O)c3ccc(/C=c4\[nH]c(=O)/c(=C/c5ccccc5)n(C)c4=O)cc3)cc1)CC2 [Compound 9006, N-(4-(2-(6,7-Dimethoxy-1,2,3,4-tetrahydro-2-isoquinolyl)ethyl)phenyl)-4-((3Z,6Z)-6-benzylidene-1-methyl-2,5-dioxo-3-piperazinylidene)methylbenzamide] | 400 nM | – | 1000 | 2 µM | –
COc1cc2c(cc1OC)CN(Cc1ccc(NC(=O)c3ccc(/C=c4\[nH]c(=O)/c(=C/c5ccccc5)n(C)c4=O)cc3)cc1)CC2.Cl [Compound 9064, N-(4-(6,7-Dimethoxy-1,2,3,4-tetrahydro-2-isoquinolyl)methylphenyl)-4-((3Z,6Z)-6-benzylidene-1-methyl-2,5-dioxo-3-piperazinylidene)methylbenzamide, hydrochloride] | 300 nM | 10 nM | 750 | 2 µM | –
COc1cc2c(cc1OC)CN(CCc1ccc(C(=O)Nc3ccc(/C=c4\[nH]c(=O)/c(=C/c5ccccc5)n(C)c4=O)cc3)cc1)CC2 [Compound 9190, N-(4-((3Z,6Z)-6-Benzylidene-1-methyl-2,5-dioxo-3-piperazinylidene)methylphenyl)-4-(2-(6,7-dimethoxy-1,2,3,4-tetrahydro-2-isoquinolyl)ethyl)benzamide] | 350 nM | 50 nM | – | 15 µM | Potentiation index ([3]; measured at 0.01 μM): 1.4; Potentiation index ([3]; measured at 0.03 μM): 3.3; Potentiation index ([3]; measured at 0.1 μM): 10.0; Potentiation index ([3]; measured at 0.3 μM): 75.0
COc1cc2c(cc1OC)CN(CCc1ccc(NC(=O)c3cccc(/C=c4\[nH]c(=O)/c(=C/c5ccccc5)n(C)c4=O)c3)cc1)CC2.Cl [Compound 9051, N-(4-(2-(6,7-Dimethoxy-1,2,3,4-tetrahydro-2-isoquinolyl)ethyl)phenyl)-3-((3Z,6Z)-6-benzylidene-1-methyl-2,5-dioxo-3-piperazinylidene)methylbenzamide, hydrochloride] | – | 10 nM | 2000 | – | IC50 ([1]; 1 h): 150 nM; IC50 [4]: 2 µM
COc1ccc(N2CCN(C(=O)c3ccc(/C=c4\[nH]c(=O)/c(=C/c5ccccc5)n(C)c4=O)cc3)CC2)cc1.Cl [Compound 9071, 1-(4-((3Z,6Z)-6-Benzylidene-1-methyl-2,5-dioxo-3-piperazinylidene)methylbenzoyl)-4-(4-methoxyphenyl)piperazine, hydrochloride] | 6000 nM | 200 nM | 4 | 6 µM | –
Cn1c(=O)/c(=C/c2ccc(C(=O)N3CCN(c4ncccn4)CC3)cc2)[nH]c(=O)/c1=C/c1ccccc1 [Compound 9022, 1-(4-((3Z,6Z)-6-Benzylidene-1-methyl-2,5-dioxo-3-piperazinylidene)methylbenzoyl)-4-(2-pyrimidyl)piperazine] | 7000 nM | 800 nM | 5 | 35 µM | –
Cn1c(=O)/c(=C/c2ccc(C(=O)Nc3ccc(CCN4CCC(O)(c5ccc(Cl)cc5)CC4)cc3)cc2)[nH]c(=O)/c1=C/c1ccccc1 [Compound 9079, N-(4-(2-(4-(4-Chlorophenyl) -4-hydroxypiperidino)ethyl)phenyl)-4-((3Z,6Z)-6-benzylidene-1-methyl-2,5-dioxo-3-piperazinylidene)methylbenzamide] | 80000 nM | – | 3 | 2 µM | IC50 ([2]; ar 1.0 cells, 96 h): 1700 nM
COc1cc2c(cc1OC)CN(CCc1ccc(COc3cccc(/C=c4\[nH]c(=O)/c(=C/c5ccccc5)n(C)c4=O)c3)cc1)CC2 [Compound 9177, (3Z,6Z)-6-Benzylidene-3-(3-(4-(2-(6,7-dimethoxy-1,2,3,4-tetrahydro-2-isoquinolyl)ethyl)benzyloxy)benzylidene)-1-methyl-2,5-piperazinedione] | 1750 nM | 500 nM | 75.0 | 15 µM | –

Source: US5935955A, “Pharmaceutical piperazine compounds” (Xenova Limited, priority 1994, dated 1999)
